Measurements from patent US9718828B2 (MERCK SHARP & DOHME CORP., priority 2011, dated 2017).
Structures can show the parent of a compound that is named as a salt. Where two headings read alike, the source gives them in different places.

Target: Btk enzyme (His-Btk) (Homo sapiens (Human), UniProt Q06187)
Assay: Btk enzyme activity, IMAP fluorescence polarization assay (Assay Method A)
[1] = read-out: EC50 Btk activity values - Assay Method A, IMAP-FP, 60 min pre-incubation, 5 μM ATP, class 100-1000 is given as ≧100 nM-<1 μM

Sequence of Btk enzyme (His-Btk) (Q06187 whole entry): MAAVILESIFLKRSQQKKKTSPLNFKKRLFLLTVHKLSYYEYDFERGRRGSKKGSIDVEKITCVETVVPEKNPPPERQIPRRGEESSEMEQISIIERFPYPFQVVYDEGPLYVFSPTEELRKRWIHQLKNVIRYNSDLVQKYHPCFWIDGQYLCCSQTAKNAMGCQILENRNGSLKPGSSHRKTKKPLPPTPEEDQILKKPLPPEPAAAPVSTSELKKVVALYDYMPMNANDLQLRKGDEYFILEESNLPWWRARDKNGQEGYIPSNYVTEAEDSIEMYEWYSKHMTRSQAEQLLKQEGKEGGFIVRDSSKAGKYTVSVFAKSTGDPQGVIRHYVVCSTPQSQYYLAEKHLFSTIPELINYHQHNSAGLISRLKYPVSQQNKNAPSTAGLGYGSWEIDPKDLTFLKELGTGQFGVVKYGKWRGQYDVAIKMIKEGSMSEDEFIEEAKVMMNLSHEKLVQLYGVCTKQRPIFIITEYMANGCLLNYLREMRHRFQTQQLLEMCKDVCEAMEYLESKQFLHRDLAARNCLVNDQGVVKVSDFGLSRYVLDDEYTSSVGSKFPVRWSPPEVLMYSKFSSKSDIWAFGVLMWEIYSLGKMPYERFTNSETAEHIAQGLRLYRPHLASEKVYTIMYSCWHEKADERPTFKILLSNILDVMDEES

SMILES	EC50	EC50 [1]
CCC(=O)N1CCC[C@@H](c2nc(-c3ccc(C(=O)Nc4nc5c(s4)CC(C)CC5)cc3)c3c(N)nccn23)C1 (stereo in doubt) [Example 65, (R)-4-(8-amino-3-(1-propionylpiperidin-3-yl)imidazo[1,5-a]pyrazin-1-yl)-N-(6-methyl-4,5,6,7-tetrahydrobenzo[d]thiazol-2-yl)benzamide]	< 10 nM	–
CCNC(=O)N1CCC[C@@H](n2nc(-c3ccc(C(=O)Nc4cc(C(F)(F)F)ccn4)cc3)c3c(N)ncnc32)C1 [Example 268, (R)-3-(4-amino-3-(4-(4-(trifluoromethyl)pyridin-2-ylcarbamoyl)phenyl)-1H-pyrazolo[3,4-d]pyrimidin-1-yl)-N-ethylpiperidine-1-carboxamide]	–	< 10 nM
Nc1nccn2c([C@@H]3CCCN(C(=O)CO)C3)nc(-c3ccc(C(=O)Nc4ccccn4)cc3)c12 [Example 53, (R)-4-(8-amino-3-(1-(2-hydroxyacetyl)piperidin-3-yl)imidazo[1,5-a]pyrazin-1-yl)-N-(pyridin-2-yl)benzamide]	10 to 100 nM	–
CC(C)C(=O)N1CC[C@@H](c2nc(-c3ccc(C(=O)Nc4ccccn4)cc3)c3c(N)nccn23)C1 [Example 127, (R)-4-(8-amino-3-(1-isobutyrylpyrrolidin-3-yl)imidazo[1,5-a]pyrazin-1-yl)-N-(pyridin-2-yl)benzamide, TFA salt]	100 to 1000 nM	–
COCCCNC(=O)c1cnc(N)c2c(-c3ccc(C(=O)Nc4cc(C(F)(F)F)ccn4)cc3)nc(C)n12 [Example 291, 8-amino-N-(3-methoxypropyl)-3-methyl-1-(4-(4-(trifluoromethyl)pyridin-2-ylcarbamoyl)phenyl)imidazo[1,5-a]pyrazine-5-carboxamide]	100 to 1000 nM	–
CN(C)C(=O)C(=O)N1CCC[C@@H](c2nc(-c3ccc(C(=O)Nc4cc(C5CC5)ccn4)cc3)c3c(N)nccn23)C1 [Example 111, (R)-4-(8-amino-3-(1-(2-(dimethylamino)-2-oxoacetyl)piperidin-3-yl)imidazo[1,5-a]pyrazin-1-yl)-N-(4-cyclopropylpyridin-2-yl)benzamide]	10 to 100 nM	–
Nc1nccn2c1c(-c1ccc(C(=O)Nc3ccccn3)c(F)c1)nc2[C@H]1CC[C@H](O)CC1 [Example 12, 4-(8-amino-3-((trans)-4-hydroxycyclohexyl)imidazo[1,5-a]pyrazin-1-yl)-2-fluoro-N-(pyridin-2-yl)benzamide]	100 to 1000 nM	–
CCNC(=O)N1C[C@H](c2nc(-c3ccc(C(=O)Nc4cc(C(F)(F)F)ccn4)cc3)c3c(N)nccn23)CC[C@@H]1C (relative stereo) [Example 201, (cis)-5-(8-amino-1-(4-(4-(trifluoromethyl)pyridin-2-ylcarbamoyl)phenyl)imidazo [1,5-a]pyrazin-3-yl)-N-ethyl-2-methylpiperidine-1-carboxamide, TFA salt]	–	< 10 nM
Nc1nccn2c([C@@H]3CCCN(C(=O)C4CN(C(=O)c5ccccc5)C4)C3)nc(-c3ccc(C(=O)Nc4cc(C(F)(F)F)ccn4)cc3)c12 [Example 84, (R)-4-(8-amino-3-(1-(1-benzoylazetidine-3-carbonyl)piperidin-3-yl)imidazo[1,5-a]pyrazin-1-yl)-N-(4-(trifluoromethyl)pyridin-2-yl)benzamide]	< 10 nM	–
CCOC(=O)N1CCC[C@@H](c2nc(-c3ccc(C(=O)Nc4cc(C(F)(F)F)ccn4)cc3)c3c(N)ncnn23)C1 [Example 255, (R)-ethyl 3-(4-amino-5-(4-(4-(trifluoromethyl)pyridin-2-ylcarbamoyl)phenyl)imidazo[1,5-f][1,2,4]triazin-7-yl)piperidine-1-carboxylate]	–	< 10 nM
C[C@H]1CC[C@@H](c2nc(-c3ccc(C(=O)Nc4cc(C5CC5)ccn4)cc3)c3c(N)nccn23)CN1C(=O)N1CCCCC1 (relative stereo) [Example 184, 4-(8-amino-3-((cis)-6-methyl-1-(piperidine-1-carbonyl)piperidin-3-yl)imidazo[1,5-a]pyrazin-1-yl)-N-(4-cyclopropylpyridin-2-yl)benzamide, TFA salt]	–	< 10 nM
CCOCCC(=O)N1CCC[C@@H](c2nc(-c3ccc(C(=O)Nc4cc(C(F)(F)F)ccn4)cc3)c3c(N)ncnn23)C1 [Example 259, (R)-4-(4-amino-7-(1-(3-ethoxypropanoyl)piperidin-3-yl)imidazo[1,5-f][1,2,4]triazin-5-yl)-N-(4-(trifluoromethyl)pyridin-2-yl)benzamide]	–	< 10 nM
CC(C)(C)NC(=O)C1CCCN(c2nc(-c3ccc(C(=O)Nc4ccccn4)cc3)c3c(N)nccn23)C1 (centres unmarked) [Example 228, 1-(8-amino-1-(4-(pyridin-2-ylcarbamoyl)phenyl)imidazo[1,5-a]pyrazin-3-yl)-N-tert-butylpiperidine-3-carboxamide, TFA salt]	10 to 100 nM	–
Nc1nccn2c1c(-c1ccc(C(=O)Nc3ccccn3)c(Cl)c1)nc2[C@H]1CC[C@H](O)CC1 [Example 23, 4-(8-amino-3-((trans)-4-hydroxycyclohexyl)imidazo[1,5-a]pyrazin-1-yl)-2-chloro-N-(pyridin-2-yl)benzamide]	10 to 100 nM	–
Nc1nccn2c(N3CCCC(C(=O)NC[C@@H]4CCCO4)C3)nc(-c3ccc(C(=O)Nc4cc(C(F)(F)F)ccn4)cc3)c12 (stereo partly drawn) [Example 231, 1-(8-amino-1-(4-(4-(trifluoromethyl)pyridin-2-ylcarbamoyl)phenyl)imidazo[1,5-a]pyrazin-3-yl)-N-(((S)-tetrahydrofuran-2-yl)methyl)piperidine-3-carboxamide, TFA salt]	–	< 10 nM
CCN(CC)c1nc(-c2ccc(C(=O)Nc3cc(C#N)ccn3)cc2)c2c(N)nccn12 [Example 215, 4-(8-amino-3-(diethylamino)imidazo[1,5-a]pyrazin-1-yl)-N-(4-cyanopyridin-2-yl)benzamide]	10 to 100 nM	–
CCC(=O)N1CCC[C@@H](c2nc(-c3ccc(C(=O)Nc4cc(C5CC5)ccn4)cc3)c3c(N)nccn23)C1 [Example 60, (R)-4-(8-amino-3-(1-propionylpiperidin-3-yl)imidazo[1,5-a]pyrazin-1-yl)-N-(4-cyclopropylpyridin-2-yl)benzamide]	< 10 nM	–
CC[C@H](C)C(=O)N1CCC[C@@H](c2nc(-c3ccc(C(=O)Nc4ccccn4)cc3)c3c(N)nccn23)C1 [Example 58, 4-(8-amino-3-((R)-1-((S)-2-methylbutanoyl)piperidin-3-yl)imidazo[1,5-a]pyrazin-1-yl)-N-(pyridin-2-yl)benzamide]	10 to 100 nM	–
Nc1nccn2c([C@@H]3CCCN(C(=O)C45CC(C4)C5)C3)nc(-c3ccc(C(=O)Nc4cc(C(F)(F)F)ccn4)cc3)c12 [Example 90, (R)-4-(8-amino-3-(1-(bicyclo[1.1.1]pentane-1-carbonyl)piperidin-3-yl)imidazo[1,5-a]pyrazin-1-yl)-N-(4-(trifluoromethyl)pyridin-2-yl)benzamide]	< 10 nM	–
CCNC(=O)C1CCCN(c2nc(-c3ccc(C(=O)Nc4cc(C(F)(F)F)ccn4)cc3)c3c(N)nccn23)C1 (centres unmarked) [Example 236, 1-(8-amino-1-(4-(4-(trifluoromethyl)pyridin-2-ylcarbamoyl)phenyl)imidazo[1,5-a]pyrazin-3-yl)-N-ethylpiperidine-3-carboxamide, TFA salt]	–	< 10 nM
Cc1ccc(NC(=O)C(=O)N2CCC[C@@H](c3nc(-c4ccc(C(=O)Nc5cc(C6CC6)ccn5)cc4)c4c(N)nccn34)C2)cc1C [Example 113, (R)-4-(8-amino-3-(1-(2-(3,4-dimethylphenylamino)-2-oxoacetyl)piperidin-3 yl)imidazo[1,5-a]pyrazin-1-yl)-N-(4-cyclopropylpyridin-2-yl)benzamide]	10 to 100 nM	–
CCC(=O)N1CCC[C@@H](c2nc(-c3ccc(C(=O)Nc4cc(C#N)ccn4)cc3)c3c(N)nccn23)C1 [Example 96, (R)-4-(8-amino-3-(1-propionylpiperidin-3-yl)imidazo[1,5-a]pyrazin-1-yl)-N-(4-cyanopyridin-2-yl)benzamide]	< 10 nM	–
N#Cc1csc(C(=O)N2CCC[C@@H](c3nc(-c4ccc(C(=O)Nc5cc(C6CC6)ccn5)cc4)c4c(N)nccn34)C2)c1 [Example 118, (R)-4-(8-amino-3-(1-(4-cyanothiophene-2-carbonyl)piperidin-3 yl)imidazo[1,5-a]pyrazin-1-yl)-N-(4-cyclopropylpyridin-2-yl)benzamide]	–	< 10 nM
CCC(F)(F)C(=O)N1CCC[C@@H](c2nc(-c3ccc(C(=O)Nc4ccccn4)cc3)c3c(N)nccn23)C1 [Example 93, (R)-4-(8-amino-3-(1-(2,2-difluorobutanoyl)piperidin-3-yl)imidazo[1,5-a]pyrazin-1-yl)-N-(pyridin-2-yl)benzamide]	10 to 100 nM	–
Nc1nccn2c(C3CCOCC3)nc(-c3ccc(C(=O)Nc4cc(C(F)(F)F)ccn4)cc3)c12 [Example 25, 4-(8-amino-3-(tetrahydro-2H-pyran-4-yl)imidazo[1,5-a]pyrazin-1-yl)-N-(4-(trifluoromethyl)pyridin-2-yl)benzamide]	–	< 10 nM
CSCCC(=O)N1CCC[C@@H](n2nc(-c3ccc(C(=O)Nc4cc(C(F)(F)F)ccn4)cc3)c3c(N)ncnc32)C1 [Example 276, (R)-4-(4-amino-1-(1-(3-(methylthio)propanoyl)piperidin-3-yl)-1H-pyrazolo[3,4-d]pyrimidin-3-yl)-N-(4-(trifluoromethyl)pyridin-2-yl)benzamide]	–	< 10 nM
CCN1CCC[C@@H](c2nc(-c3ccc(C(=O)Nc4cc(C(F)(F)F)ccn4)cc3)c3c(N)nccn23)C1 [Example 138, (R)-4-(8-amino-3-(1-ethylpiperidin-3-yl)imidazo[1,5-a]pyrazin-1-yl)-N-(4-(trifluoromethyl)pyridin-2-yl)benzamide, TFA salt]	10 to 100 nM	–
CCCc1ccnc(NC(=O)c2ccc(-c3nc([C@H]4CC[C@H](O)CC4)n4ccnc(N)c34)cc2OC)c1 [Example 11, 4-(8-amino-3-((trans)-4-hydroxycyclohexyl)imidazo[1,5-a]pyrazin-1-yl)-2-methoxy-N-(4-propylpyridin-2-yl)benzamide]	–	< 10 nM
COCCC(=O)N1CCC[C@@H](c2nc(-c3ccc(C(=O)Nc4ccccn4)c(F)c3)c3c(N)nccn23)C1 [Example 282, (R)-4-(8-amino-3-(1-(3-methoxypropanoyl)piperidin-3-yl)imidazo[1,5-a]pyrazin-1-yl)-2-fluoro-N-(pyridin-2-yl)benzamide, TFA salt]	< 10 nM	–
